Entries after “also recorded” stand apart in the source; their conditions may differ.
Tests used:
[1] = Phase-1 drug-drug interaction study, plasma PK in healthy volunteers
Protocol: A drug-drug interaction study (DDI) study is a study designed to investigate whether a drug alters the pharmacokinetics of another drug or drugs or their metabolites.
Compound (III) Subjects received 800 mg of Compound (III) once daily from Days 1-3, Days 11-13, and Days 21-23. PK blood samples for determination of Compound (III) and metabolite concentrations were collected in reference to the Day 3, Day 13, and Day 23 doses.
Simeprevir—Subjects received 150 mg of Simeprevir (SMV) once daily from Days 4-23. PK blood samples for determination of SMV concentrations were collected in reference to the Day 10, Day 13, Day 20, and Day 23 doses.
Odalasvir—Subjects received a loading dose of 150 mg on Day 14, and 50 mg of Odalasvir once daily from Days 15-23. PK blood samples for determination of Odalasvir concentrations were collected in reference to the Day 20 and Day 23 doses.
Compound (III)—Subjects received 800 mg of Compound (III) once daily from Days 1-3, Days 11-13 and Days 21-23. PK blood samples for determination of Compound (III) and metabolite concentrations were collected in reference to the Day 3, Day 13, and Day 23 doses.
Simeprevir—Subjects receive 150 mg of SMV once daily from Days 4-23. PK blood samples for determination of SMV concentrations were collected in reference to the Day 20 and Day 23 doses.
Odalasvir—Subjects receive a loading dose of 150 mg on Day 4, and 50 mg of Odalasvir once daily from Days 5-23. PK blood samples for determination of Odalasvir concentrations were collected in reference to the Day 10, Day 13, Day 20, and Day 23 doses.
A primary objective was to evaluate the effect of multiple oral doses of Odalasvir (alone), Simeprevir (alone), and Odalasvir and Simeprevir on the multiple oral dose PK of Compound (III) (and certain metabolites thereof, such as the major metabolites in systemic circulation) in healthy volunteers. Other objectives were to evaluate the safety and tolerability of multiple oral doses of Compound (III) when administered alone and in combination with single and multiple oral doses of Odalasvir and/or Simeprevir in healthy volunteers; to determine the potential effect of Compound of Compound (III) and/or Odalasvir on the steady-state PK of Simeprevir in healthy volunteers; to determine the potential effect of Compound of Compound (III) and/or Simeprevir on the steady state PK of Odalasvir in healthy volunteers.
Various other PK parameters were estimated including: […], t1/2, Tmax, Tlast, CL/F, Vz/F, and λz.
Odalasvir: 150 mg loading dose; 50 mg for the remainder of the study period.

[2] = prior drug-drug interaction study, Digoxin a pgp-substrate; cited from earlier work
[3] = Phase 2a open-label combination study, pharmacokinetics; assay type: in vivo, human
Protocol: A randomized, Phase 2a, open-label study was carried out to evaluate the safety, pharmacokinetics and efficacy of the combination of Compound (III), Odalasvir and Simeprevir in Genotype 1 treatment-naïve subjects with chronic hepatitis C. Other treatment-naïve subjects included Genotype 2, 3, 4, 5 and 6. The aim of the study was to determine the efficacy, pharmacokinetics (PK), and safety of Compound (III)+Odalasvir±SMV in HCV-infected subjects. […] Efficacy, PK and safety evaluations were conducted during and through 24 weeks post dosing. Up to 15 cohorts were enrolled; data was generated from cohorts that have completed dosing.

OATP1B1 = target: T1, OATP1B1 (Homo sapiens, UniProt Q9Y6L6); details: uptake transporter; cited from earlier work
T1 sequence (Q9Y6L6 1-691): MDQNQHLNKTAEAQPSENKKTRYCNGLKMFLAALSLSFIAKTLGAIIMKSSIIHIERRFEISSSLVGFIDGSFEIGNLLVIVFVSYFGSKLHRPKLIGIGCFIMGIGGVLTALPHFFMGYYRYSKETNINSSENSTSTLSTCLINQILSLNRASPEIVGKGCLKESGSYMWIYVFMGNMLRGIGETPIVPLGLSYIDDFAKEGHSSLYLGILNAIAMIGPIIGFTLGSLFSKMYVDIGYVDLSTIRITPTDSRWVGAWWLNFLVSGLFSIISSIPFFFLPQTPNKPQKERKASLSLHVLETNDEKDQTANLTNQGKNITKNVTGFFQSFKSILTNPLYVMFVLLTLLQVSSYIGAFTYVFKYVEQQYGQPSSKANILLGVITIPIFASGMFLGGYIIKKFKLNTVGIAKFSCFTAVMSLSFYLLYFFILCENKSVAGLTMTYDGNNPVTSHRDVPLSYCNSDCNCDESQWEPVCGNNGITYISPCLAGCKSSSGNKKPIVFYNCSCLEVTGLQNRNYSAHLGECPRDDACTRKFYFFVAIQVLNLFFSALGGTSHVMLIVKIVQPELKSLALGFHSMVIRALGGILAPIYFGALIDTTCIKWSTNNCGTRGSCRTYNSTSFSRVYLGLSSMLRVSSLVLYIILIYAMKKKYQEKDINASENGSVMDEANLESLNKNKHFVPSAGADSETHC

BSEP = BSEP (Homo sapiens, UniProt O95342); details: efflux transporter; cited from earlier work
Sequence of BSEP (O95342 whole entry): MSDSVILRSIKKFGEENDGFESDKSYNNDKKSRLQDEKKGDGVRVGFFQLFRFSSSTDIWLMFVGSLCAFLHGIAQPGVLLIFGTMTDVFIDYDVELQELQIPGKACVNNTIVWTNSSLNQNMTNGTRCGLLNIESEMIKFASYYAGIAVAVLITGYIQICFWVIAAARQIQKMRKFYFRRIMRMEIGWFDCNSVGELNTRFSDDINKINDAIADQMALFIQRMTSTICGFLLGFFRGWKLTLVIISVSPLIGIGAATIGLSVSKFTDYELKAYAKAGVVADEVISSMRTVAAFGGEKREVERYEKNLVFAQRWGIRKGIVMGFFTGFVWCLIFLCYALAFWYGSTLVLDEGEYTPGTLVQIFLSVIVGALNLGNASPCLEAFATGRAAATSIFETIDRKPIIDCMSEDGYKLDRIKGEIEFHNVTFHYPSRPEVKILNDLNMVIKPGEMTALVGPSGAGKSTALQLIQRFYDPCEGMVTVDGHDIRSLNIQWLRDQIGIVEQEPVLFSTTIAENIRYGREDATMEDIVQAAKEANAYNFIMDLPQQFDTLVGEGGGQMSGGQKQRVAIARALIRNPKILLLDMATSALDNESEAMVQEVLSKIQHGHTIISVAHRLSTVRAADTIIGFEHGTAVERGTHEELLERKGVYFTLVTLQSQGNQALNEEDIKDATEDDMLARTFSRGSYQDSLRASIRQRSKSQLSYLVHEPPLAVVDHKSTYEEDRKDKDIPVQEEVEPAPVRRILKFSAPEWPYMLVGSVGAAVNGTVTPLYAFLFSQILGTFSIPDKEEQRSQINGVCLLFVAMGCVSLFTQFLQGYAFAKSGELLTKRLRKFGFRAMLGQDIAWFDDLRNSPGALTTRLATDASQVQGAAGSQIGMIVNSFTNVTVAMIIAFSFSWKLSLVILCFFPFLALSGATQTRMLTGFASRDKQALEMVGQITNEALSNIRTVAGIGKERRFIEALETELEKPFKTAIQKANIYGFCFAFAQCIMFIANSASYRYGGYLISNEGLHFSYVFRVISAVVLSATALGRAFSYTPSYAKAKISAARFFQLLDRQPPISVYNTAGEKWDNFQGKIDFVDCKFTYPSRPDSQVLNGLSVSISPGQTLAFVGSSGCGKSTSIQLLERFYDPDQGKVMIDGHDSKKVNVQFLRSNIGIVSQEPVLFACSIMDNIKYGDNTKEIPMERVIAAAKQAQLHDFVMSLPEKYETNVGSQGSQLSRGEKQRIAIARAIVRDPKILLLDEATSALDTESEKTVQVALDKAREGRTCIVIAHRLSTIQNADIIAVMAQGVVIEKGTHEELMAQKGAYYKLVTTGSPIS

P-gp = P-gp (Homo sapiens, UniProt P08183); details: efflux transporter; cited from earlier work
Sequence of P-gp (P08183 whole entry): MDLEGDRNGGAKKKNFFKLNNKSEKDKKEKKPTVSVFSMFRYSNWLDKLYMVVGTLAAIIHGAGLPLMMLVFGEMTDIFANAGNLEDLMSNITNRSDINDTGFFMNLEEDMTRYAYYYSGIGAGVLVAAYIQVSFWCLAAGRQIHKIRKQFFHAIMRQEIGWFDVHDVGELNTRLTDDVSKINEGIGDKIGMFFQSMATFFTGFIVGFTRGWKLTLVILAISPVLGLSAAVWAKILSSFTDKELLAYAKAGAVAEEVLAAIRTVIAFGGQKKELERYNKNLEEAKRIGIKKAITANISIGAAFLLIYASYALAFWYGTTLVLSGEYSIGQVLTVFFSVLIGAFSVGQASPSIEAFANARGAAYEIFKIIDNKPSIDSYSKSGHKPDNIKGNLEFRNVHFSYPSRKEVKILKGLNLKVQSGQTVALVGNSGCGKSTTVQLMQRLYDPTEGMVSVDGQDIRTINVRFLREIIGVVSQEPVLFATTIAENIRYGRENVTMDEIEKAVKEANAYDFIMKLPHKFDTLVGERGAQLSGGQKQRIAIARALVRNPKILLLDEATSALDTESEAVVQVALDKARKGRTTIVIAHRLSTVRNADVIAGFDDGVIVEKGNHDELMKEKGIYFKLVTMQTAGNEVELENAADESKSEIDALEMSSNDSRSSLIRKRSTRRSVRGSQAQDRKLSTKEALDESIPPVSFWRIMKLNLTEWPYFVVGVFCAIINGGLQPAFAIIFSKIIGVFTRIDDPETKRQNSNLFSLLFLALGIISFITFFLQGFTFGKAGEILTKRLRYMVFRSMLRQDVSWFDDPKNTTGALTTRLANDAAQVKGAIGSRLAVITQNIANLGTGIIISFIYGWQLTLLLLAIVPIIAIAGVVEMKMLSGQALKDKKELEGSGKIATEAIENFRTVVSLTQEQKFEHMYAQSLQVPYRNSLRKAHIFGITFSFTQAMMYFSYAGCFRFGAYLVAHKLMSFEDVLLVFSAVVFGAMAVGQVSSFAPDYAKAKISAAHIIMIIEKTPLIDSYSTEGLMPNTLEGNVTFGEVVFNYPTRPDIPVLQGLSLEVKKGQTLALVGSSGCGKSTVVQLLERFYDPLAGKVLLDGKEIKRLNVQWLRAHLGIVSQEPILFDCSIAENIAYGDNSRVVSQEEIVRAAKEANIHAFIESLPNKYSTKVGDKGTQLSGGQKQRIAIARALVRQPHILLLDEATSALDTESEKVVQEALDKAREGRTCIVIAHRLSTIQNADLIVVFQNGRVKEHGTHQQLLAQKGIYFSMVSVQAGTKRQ

MRP2 = MRP2 (Homo sapiens, UniProt Q92887); details: efflux transporter; cited from earlier work
Sequence of MRP2 (Q92887 whole entry): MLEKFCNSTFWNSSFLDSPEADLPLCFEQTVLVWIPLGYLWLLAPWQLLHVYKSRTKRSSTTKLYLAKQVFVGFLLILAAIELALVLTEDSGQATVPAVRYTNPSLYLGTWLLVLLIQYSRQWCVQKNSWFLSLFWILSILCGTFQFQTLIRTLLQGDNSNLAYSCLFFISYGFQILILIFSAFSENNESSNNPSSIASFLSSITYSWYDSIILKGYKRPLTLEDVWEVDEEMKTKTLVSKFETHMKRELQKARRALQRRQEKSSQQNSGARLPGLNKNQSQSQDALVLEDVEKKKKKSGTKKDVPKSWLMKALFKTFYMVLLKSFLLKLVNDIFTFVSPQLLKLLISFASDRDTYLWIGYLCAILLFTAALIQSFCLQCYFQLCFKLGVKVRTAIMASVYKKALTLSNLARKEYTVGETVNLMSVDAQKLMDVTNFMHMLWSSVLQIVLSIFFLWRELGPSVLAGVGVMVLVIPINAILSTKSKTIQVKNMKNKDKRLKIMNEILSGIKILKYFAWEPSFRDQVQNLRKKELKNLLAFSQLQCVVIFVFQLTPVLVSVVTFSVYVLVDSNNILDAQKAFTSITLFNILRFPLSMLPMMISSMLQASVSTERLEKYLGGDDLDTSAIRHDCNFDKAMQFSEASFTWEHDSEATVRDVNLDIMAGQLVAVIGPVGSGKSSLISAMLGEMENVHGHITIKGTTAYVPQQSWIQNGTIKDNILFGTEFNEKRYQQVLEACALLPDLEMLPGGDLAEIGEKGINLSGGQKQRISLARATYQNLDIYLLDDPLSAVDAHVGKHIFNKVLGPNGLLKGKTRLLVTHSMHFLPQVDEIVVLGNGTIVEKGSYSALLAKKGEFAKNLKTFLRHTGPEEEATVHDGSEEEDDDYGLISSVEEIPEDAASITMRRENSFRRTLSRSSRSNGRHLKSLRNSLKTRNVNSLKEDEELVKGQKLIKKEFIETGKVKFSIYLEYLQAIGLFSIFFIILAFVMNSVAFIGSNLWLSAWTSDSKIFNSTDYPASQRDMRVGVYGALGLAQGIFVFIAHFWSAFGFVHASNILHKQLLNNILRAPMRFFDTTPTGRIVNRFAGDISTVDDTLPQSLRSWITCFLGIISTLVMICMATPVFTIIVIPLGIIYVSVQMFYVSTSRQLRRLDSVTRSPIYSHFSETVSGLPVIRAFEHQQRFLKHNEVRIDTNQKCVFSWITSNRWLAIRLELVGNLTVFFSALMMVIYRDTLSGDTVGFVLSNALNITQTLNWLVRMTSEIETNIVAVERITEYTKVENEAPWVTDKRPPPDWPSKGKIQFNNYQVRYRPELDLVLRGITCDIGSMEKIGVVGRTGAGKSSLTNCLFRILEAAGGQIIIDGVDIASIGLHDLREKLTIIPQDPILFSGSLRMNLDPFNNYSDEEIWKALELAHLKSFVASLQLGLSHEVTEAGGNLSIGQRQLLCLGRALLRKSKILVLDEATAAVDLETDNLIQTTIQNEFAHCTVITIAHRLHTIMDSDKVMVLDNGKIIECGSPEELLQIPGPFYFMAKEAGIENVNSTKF

[4] = prior drug-drug interaction study, Rosuvastatin substrate of OATPs & BCRP; cited from earlier work

Structure (SMILES) | exposure increase caused by Odalasvir ([1]; DDI study results) [×] | exposure increase, effect of the three Compounds ([1]; DDI study results) [×] | increase of exposure with the combination of the three drugs ([1]; human in vivo study) [times] | effect of Compound (III) on exposure / bioavailability ([1]; human subjects) | increase in exposure of Digoxin [2] [%] | observed exposure in Cohort 1 / group (i) versus anticipated ([3]; Compound (III) 400 mg, ODV 50 mg QD, SMV 100 mg QD) | decrease of exposure on reducing Simeprevir dosing from 100 mg to 75 mg QD ([3]; in vivo) | in vitro inhibition of OATP1B1 (OATP1B1) | in vitro inhibition of BSEP (BSEP) | in vitro inhibition of P-gp (P-gp) | in vitro inhibition of MRP2 (MRP2) | increase in Rosuvastatin exposure [4] [fold] | exposure increase caused by SMV ([1]; DDI study results) | change of exposure on increasing Compound (III) dose from 400 to 800 mg ([3]; HCV GT 1 patients)
COc1ccc2c(O[C@@H]3C[C@H]4C(=O)N[C@]5(C(=O)NS(=O)(=O)C6CC6)C[C@H]5/C=C\CCCCN(C)C(=O)[C@@H]4C3)cc(-c3nc(C(C)C)cs3)nc2c1C [SMV, Simeprevir, reference compound] | 1.6 | 1.6 | 1.6 | no apparent effect; also recorded: does not alter | 35 | higher than anticipated | less than proportionally | strong in vitro inhibition | strong/moderate | strong/moderate | strong/moderate | 3 |  | 
C[C@H](NP(=O)(O)OC[C@@]1(F)O[C@@H](n2ccc(=O)[nH]c2=O)[C@](C)(O)[C@@H]1O)C(=O)O [Compound A-3] | 2.6 |  |  |  |  |  |  |  |  |  |  |  | 1.6 × | 
C[C@]1(O)[C@H](n2ccc(=O)[nH]c2=O)O[C@](F)(CO)[C@H]1O [Compound A-1] | 1.5 |  |  |  |  |  |  |  |  |  |  |  | no apparent effect | less than proportionally

From patent US20180021361A1, “COMBINATION DRUG TREATMENT FOR HEPATITIS C INFECTION” (JANSSEN PHARMACEUTICALS, INC., priority 2016, published 2018)
